The source made the active and inactive calls. The rule behind the calls is not given here.

For orientation: inhibition means the percentage by which the read-out fell short of the control.

The target in the first assay is Alpha-synuclein (Homo sapiens) (UniProt P37840). In words: Inhibition of alpha alpha-synuclein (unknown origin) fibril aggregation assessed as reduction in TH-T fluorescent signal at 100 uM measured after 5 to 40 hrs by ThT fluorescence assay. The settings on record: time 5-40 hrs.
As for `COc1cccc(Nc2c([N+](=O)[O-])cc(C(F)(F)F)cc2[N+](=O)[O-])c1`, the inhibition entry is “inactive”.

Regarding `O=[N+]([O-])c1cc([N+](=O)[O-])c(Nc2ccccc2)c(C(F)(F)F)c1`, the inhibition result is “inactive”.

On to `Cc1cc(C)c(Nc2c([N+](=O)[O-])cc(C(F)(F)F)cc2[N+](=O)[O-])c(C)c1`, for which the inhibition result is “inactive”.

For the compound `O=C(COc1ccccc1)Nc1c([N+](=O)[O-])cc(C(F)(F)F)cc1[N+](=O)[O-]`, the inhibition result is “inactive”.

For `Cn1nnnc1SCc1ccc(C(F)(F)F)cc1`, the inhibition result is “inactive”.

In the case of `Cn1cnnc1SCc1ccc(C(F)(F)F)cc1`, the inhibition entry was “inactive”.

In the case of `N#Cc1c(C(F)(F)F)c([N+](=O)[O-])c(-c2cccc([N+](=O)[O-])c2)[nH]c1=O`, the inhibition entry was “Active”.

On to `O=[N+]([O-])c1cc(C(F)(F)F)cc([N+](=O)[O-])c1Nc1ccc(F)cc1`, for which the inhibition entry was “inactive”.

Consider `O=[N+]([O-])c1cc(C(F)(F)F)cc([N+](=O)[O-])c1N1CCN(CCO)CC1`, for which the inhibition entry is “inactive”.

On to `O=[N+]([O-])c1cc(C(F)(F)F)cc([N+](=O)[O-])c1NC1=NN(c2ccccc2)CC1`, for which the inhibition entry was “inactive”.

With `O=C(O)CSCc1ccc(C(F)(F)F)cc1`, the inhibition entry was “inactive”.

With `O=[N+]([O-])c1cc(C(F)(F)F)cc([N+](=O)[O-])c1N1CCN(c2ncnc3ccccc23)CC1`, the inhibition entry is “inactive”.

`Cc1cc(C)nc(Sc2c([N+](=O)[O-])cc(C(F)(F)F)cc2[N+](=O)[O-])n1`: the inhibition result is “inactive”.

`O=[N+]([O-])c1cc(C(F)(F)F)cc([N+](=O)[O-])c1Sc1c(Cl)c(Cl)nc(Cl)c1Cl`: the inhibition entry is “inactive”.

Consider `Cn1nnnc1SCc1ccccc1[N+](=O)[O-]`, for which the inhibition entry is “inactive”.

As to `Cc1cccc(N2CCC(Nc3c([N+](=O)[O-])cc(C(F)(F)F)cc3[N+](=O)[O-])=N2)c1`, the inhibition result was “inactive”.

Consider `Cn1nnnc1Sc1c([N+](=O)[O-])cc(C(F)(F)F)cc1[N+](=O)[O-]`, for which the inhibition entry is “Active”.

Take `O=[N+]([O-])c1cc(C(F)(F)F)cc([N+](=O)[O-])c1NCCCO`: the inhibition result is “inactive”.

Another assay has the same target. Kind of assay: Inhibition of alpha alpha-synuclein (unknown origin) fibril aggregation assessed as reduction in TH-T fluorescent signal at 100 uM measured after 5 to 40 hrs by ThT fluorescence assay relative to control. The settings on record: time 5-40 hrs.
Take `O=[N+]([O-])c1cc(C(F)(F)F)cc([N+](=O)[O-])c1F`: the inhibition stood at 57%.

Turning to `O=[N+]([O-])c1cc(C(F)(F)F)cc([N+](=O)[O-])c1Nc1cccc(O)c1`, the inhibition was determined as 68%.

The values are drawn from ChEMBL document CHEMBL6127019, “Exploitation of the nitro- and/or 4-Trifluoromethyl-decorated phenyl fragment to develop small inhibitors of Alpha-Syn fibril aggregation” (Bioorg Med Chem Lett, 2024).
